Data taken from patent publication US20010023254A1, “Use of sulfamate derivatives for treating impulse control disorders” (priority 2000, published 2001).
Entries after “also recorded” stand apart in the source; their conditions may differ.

Tests used:
[1] = test system: Persons with bulimia nervosa; details: cited from earlier work
[2] = test system: Patients with Overeating, Overweight, and Obesity; assay: Patients with overeating, overweight and obesity treated clinically with topiramate; type: in vivo, human
Protocol: (§1) In the examples, patients were treated with open-label topiramate starting at 25 mg/qHS and the dosage increased by the patient in 25 mg increments as tolerated by the subjects until a response is seen up to a maximum of 1200 mg. [table]

[3] = test system: patients who coincidentally had binge eating disorder; assay: Clinical studies of topiramate in mood disorders; patients who coincidentally had binge eating disorder; type: in vivo, human; details: several mood disorder patients with coincident binge eating disorder
Source text: The activity of the compounds of formula I in treating ICD's was first evidenced in clinical studies conducted to evaluate the efficacy of topiramate in treating mood disorders.

[4] = test system: Patients with Binge Eating Disorder (BED); assay: Patients with Binge Eating Disorder (BED) treated clinically with open-label topiramate; type: in vivo, human
Protocol: as §1

patients with epilepsy = details: cited from earlier work
[5] = Pt 5, first trial, max dose 250 mg/day
[6] = Pt 5, second trial, max dose 200 mg/day
[7] = Pt 5, first trial, max dose 100 mg/day
[8] = Pt 5, second trial, max dose 100 mg/day

## O=C1NC(=O)C(c2ccccc2)(c2ccccc2)N1 [phenytoin]
[1]
  Binge eating: reduced binge eating

## CC1(C)O[C@@H]2[C@@H](CO[C@@]3(COS(N)(=O)=O)OC(C)(C)O[C@@H]23)O1 [Topiramate, 2,3;4,5-bis-O-(1-methylethylidene)-beta -D-fructopyranose sulfamate]
[2]; Pt 1, max dose 700 mg/day
  Loss of weight: 9 lbs
  Response of BD (Bipolar Disorder): No response of BD
[2]; Pt 2, max dose 300 mg/day
  Loss of weight: 16 lbs
  Response of BD (Bipolar Disorder): Remission of BD
  Response of overeating: Remission of overeating
[2]; Pt 3 ADJ, max dose 400 mg/day
  Loss of weight: 7 lbs
  Response of BD (Bipolar Disorder): Moderate improvement of BD
  Response of overeating: Moderate improvement of overeating
[2]; Pt 4, max dose 350 mg/day
  Loss of weight: 5 lbs
  Response of BD (Bipolar Disorder): No response of BD
  Response of overeating: Mild improvement in overeating
[2]; [5]
  Loss of weight: 7 lbs
  Response of BD (Bipolar Disorder): First Trial: Worsening of BD
  Response of overeating: Mild decrease of overeating
[2]; [6]
  Body weight, before-after: 154-155 lbs
  Gain of weight: 1 lb
  Response of overeating: Mild decrease of overeating
[2]; Pt 6, max dose 800 mg/day
  Loss of weight: 9 lbs
[2]; Pt 6, max dose 800 mg/day, BD in remission at start
  Response of BD (Bipolar Disorder): Worsening of BD
[2]; Pt 7 NLR, max dose 300 mg/day
  Discontinuation and its reason (adverse effects): Discontinued due to anorexia
  Loss of weight: 46 lbs
  Response of BD (Bipolar Disorder): Worsening of BD
[2]; Pt 8 PR, max dose 700 mg/day
  Loss of weight: 19 lbs
  Reason for discontinuation (adverse effects): G.I. Distress
  Response of BD (Bipolar Disorder): Moderate improvement of BD
  Response of overeating: Marked improvement in overeating
[3]
  Binging, as reported by patients: marked reduction in their binging
  Weight, as reported by patients: concurrent loss in weight
[4]; Pt 1, max dose 1200 mg/day
  Loss of weight: Loss of 107 lbs.
  Response of BD (Bipolar Disorder): Remission of BD
  Response of BED (Binge Eating Disorder): Remission of BED
[4]; Pt 2, max dose 150 mg/day
  Discontinuation and its reason (adverse effects): Discontinued due to sedation,; also recorded: cognitive dulling
  Loss of weight: Loss of 5 lbs.
  Response of BD (Bipolar Disorder): Mild improvement of BD,
  Response of BED (Binge Eating Disorder): Moderate decrease of BED,
[4]; Pt 3, max dose 1200 mg/day
  Loss of weight: Loss of 50.5 lbs
  Response of BD (Bipolar Disorder): Moderate improvement of BD.
  Response of BED (Binge Eating Disorder): Remission of BED
[4]; Pt 4, max dose 900 mg/day
  Loss of weight: Loss of 30.5 lbs.
  Response of BD (Bipolar Disorder): Moderate improvement of BD,
  Response of BED (Binge Eating Disorder): Marked improvement of BED,
[4]; [7]
  Discontinuation and its reason (adverse effects): discontinued due to GI distress
  Response of BED (Binge Eating Disorder): First trial: No response of BED,
[4]; [8]
  Loss of weight: Loss of 11 lbs.
  Response of BED (Binge Eating Disorder): Remission of BED
  Response of Compulsive Buying: Remission of Compulsive
[4]; Pt 5, second trial, max dose 100 mg/day, BD in remission at start
  Response of BD (Bipolar Disorder): Second Trial: Worsening of BD
[4]; Pt 6, max dose 100 mg/day
  Response of BED (Binge Eating Disorder): No response of BED
  Weight change: No weight change
Patients with epilepsy; clinical trials of human epilepsy, adjunctive therapy or monotherapy
  Efficacy in simple and complex partial seizures and secondarily generalized seizures: effective
Patients with epilepsy; controlled trials in patients with epilepsy
  Effect on appetite: suppression of appetite
Patients with epilepsy; controlled trials in patients with epilepsy, unrelated to binge eating
  Effect on weight: weight loss
